The values below are quoted from earlier work in patent US20100279974A1, “Nucleosides With Non-Natural Bases as Anti-Viral Agents” (priority 2005, published 2010).

For this data set the following is noted: in vivo.

With `NC(=O)c1nccn(C2OC(COP(=O)(O)OP(=O)(O)OP(=O)(O)O)C(O)C2O)c1=O` (centres unmarked), the antiviral activity entry is listed as “exhibits antiviral activity in vivo”.
In the case of `NC(=O)c1nccn([C@@H]2O[C@H](CO)[C@@H](O)[C@H]2O)c1=O` [non-phosphorylated nucleoside form], the antiviral activity result was “appears to be inactive”.
